# Data reported in PubChem BioAssay AID206 (DTP/NCI, 2004).
# Several values for one entry are separate records, joined by “and”; a condition that tells them apart may be missing. Equal entries are not always repeated. Inconclusive results are not listed.
# Test system: nude mice, HT29 intrarenal xenograft, tumor weight T/C
# Test: NCI In Vivo Anticancer Drug Screen. Data for tumor model HT29;CX-1 Human Adenocarcinoma (MER+) (intrarenal inoculation) in NU/NU Swiss (nude) mice
# Conditions: endpoint: mean tumor weight change, higher = larger tumour
# Method in brief: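 Compounds were given to mice carrying transplantable tumors; a vehicle-dosed group served as control. The endpoint measured in each group was compared as a T/C quotient.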
# [1] = dose: 150.0 mg/kg/injection, schedule: Q04DX004 (sc), vehicle: saline with Tween-80
# [2] = dose: 300.0 mg/kg/injection, schedule: Q04DX004 (sc), vehicle: saline with Tween-80
# [3] = dose: 600.0 mg/kg/injection, schedule: Q04DX004 (sc), vehicle: saline with Tween-80
# [4] = dose: 1200.0 mg/kg/injection, schedule: Q04DX004 (sc), vehicle: saline with Tween-80
compound,measurement,setting,value
O=C(O)CC(=O)O.[NH-]CC[NH-].[Pt+2],T/C,"dose: 25.0 mg/kg/injection, schedule: Q01DX010 (sc), vehicle: dextrose",29 % of control
same,T/C,"dose: 50.0 mg/kg/injection, schedule: Q01DX010 (sc), vehicle: dextrose",41 % of control
OC(CCl)CN1CC[N+]2(CC1)CC[N+]1(CCN(CC(O)CCl)CC1)CC2 (stereo not given),T/C,"dose: 32.0 mg/kg/injection, schedule: Q01DX010 (sc), vehicle: water",245 % of control
same,T/C,"dose: 64.0 mg/kg/injection, schedule: Q01DX010 (sc), vehicle: water",59 % of control
same,T/C,"dose: 128.0 mg/kg/injection, schedule: Q01DX010 (sc), vehicle: water",108 % of control
same,T/C,"dose: 256.0 mg/kg/injection, schedule: Q01DX010 (sc), vehicle: water",35 % of control
C[C@@]1(CO)[C@H](O)CC[C@@]2(C)[C@H]1CC[C@H]1C[C@@H]3C[C@@]12CC[C@@]3(O)COC(=O)CN,T/C,"dose: 8.0 mg/kg/injection, schedule: Q04DX004 (sc), vehicle: saline + alcohol",226 % of control
same,T/C,"dose: 16.0 mg/kg/injection, schedule: Q04DX004 (sc), vehicle: saline + alcohol",106 % of control
same,T/C,"dose: 32.0 mg/kg/injection, schedule: Q04DX004 (sc), vehicle: saline + alcohol",94 % of control
same,T/C,"dose: 64.0 mg/kg/injection, schedule: Q04DX004 (sc), vehicle: saline + alcohol",218 % of control
same,T/C,"dose: 500.0 micrograms/kg/injection, schedule: Q04DX004 (sc), vehicle: saline + alcohol",97 % of control
same,T/C,"dose: 1000.0 micrograms/kg/injection, schedule: Q04DX004 (sc), vehicle: saline + alcohol",108 % of control
same,T/C,"dose: 2000.0 micrograms/kg/injection, schedule: Q04DX004 (sc), vehicle: saline + alcohol",101 % of control
same,T/C,"dose: 4000.0 micrograms/kg/injection, schedule: Q04DX004 (sc), vehicle: saline + alcohol",73 % of control
CCCCOCN(COCCCC)C(C)Cc1ccccc1 (stereo not given),T/C,"dose: 100.0 mg/kg/injection, schedule: Q04DX004 (sc), vehicle: saline with Tween-80",110 % of control
same,T/C,"dose: 200.0 mg/kg/injection, schedule: Q04DX004 (sc), vehicle: saline with Tween-80",178 % of control
same,T/C,"dose: 400.0 mg/kg/injection, schedule: Q04DX004 (sc), vehicle: saline with Tween-80",98 % of control
same,T/C,"dose: 800.0 mg/kg/injection, schedule: Q04DX004 (sc), vehicle: saline with Tween-80",97 % of control
O=S(=O)(N=N/C=C1\C=CC=CN1O)c1cccs1,T/C,[1],75 % of control
CC[C@@]1(O)C[C@H](OC2CC(N(C)C)C(OC3CC(O)C(OC4CCC(=O)C(C)O4)C(C)O3)C(C)O2)c2c(cc3c(c2O)C(=O)c2c(O)cccc2C3=O)[C@H]1C(=O)OC (stereo not given in full),T/C,"dose: 0.5 mg/kg/injection, schedule: Q01DX010 (ip), vehicle: water",35 % of control
same,T/C,"dose: 2.0 mg/kg/injection, schedule: Q04DX004 (ip), vehicle: water",114 % of control
same,T/C,"dose: 4.0 mg/kg/injection, schedule: Q04DX004 (ip), vehicle: water",61 % of control
same,T/C,"dose: 4.0 mg/kg/injection, schedule: Q04DX004 (sc), vehicle: water",25 % of control
same,T/C,"dose: 8.0 mg/kg/injection, schedule: Q04DX004 (ip), vehicle: water",37 % of control
same,T/C,"dose: 8.0 mg/kg/injection, schedule: Q04DX004 (sc), vehicle: water",4 % of control
O=C1N[C@@H]([C@H]2CC[C@H](Cl)CN2)C(=O)N[C@H]1[C@H]1CC[C@H](Cl)CN1,T/C,"dose: 0.16 mg/kg/injection, schedule: Q01DX010 (sc), vehicle: water",65 % of control and 70 % of control and 74 % of control
same,T/C,"dose: 0.31 mg/kg/injection, schedule: Q01DX010 (sc), vehicle: water",20 % of control
CN(C=O)C(C(=O)Nc1cccc2c(OC(=O)C(N(C)C=O)(N(C)C=O)N(C)C=O)c(N=Nc3ccc(S(=O)(=O)Nc4nccs4)cc3)cc(N=Nc3ccc(S(=O)(=O)Nc4nccs4)cc3)c12)(N(C)C=O)N(C)C=O (tested in a mixture with another compound),T/C,[2],91 % of control
same,T/C,[3],103 % of control
same,T/C,[4],80 % of control
CCC1OCC(C(Cl)CCl)O1 (stereo not given),T/C,"dose: 37.5 mg/kg/injection, schedule: Q01DX014 (sc), vehicle: Klucel (hydroxypropylcellulose) (HPC)",100 % of control
same,T/C,"dose: 37.5 mg/kg/injection, schedule: Q04DX014 (sc), vehicle: Klucel (hydroxypropylcellulose) (HPC)",58 % of control
same,T/C,"dose: 75.0 mg/kg/injection, schedule: Q01DX014 (sc), vehicle: Klucel (hydroxypropylcellulose) (HPC)",193 % of control
same,T/C,"dose: 75.0 mg/kg/injection, schedule: Q04DX014 (sc), vehicle: Klucel (hydroxypropylcellulose) (HPC)",30 % of control
same,T/C,"dose: 150.0 mg/kg/injection, schedule: Q01DX014 (sc), vehicle: Klucel (hydroxypropylcellulose) (HPC)",86 % of control
same,T/C,"dose: 150.0 mg/kg/injection, schedule: Q04DX014 (sc), vehicle: Klucel (hydroxypropylcellulose) (HPC)",1 % of control
same,T/C,"dose: 300.0 mg/kg/injection, schedule: Q01DX014 (sc), vehicle: Klucel (hydroxypropylcellulose) (HPC)",122 % of control
same,T/C,"dose: 300.0 mg/kg/injection, schedule: Q04DX004 (sc), vehicle: other",83 % of control
same,T/C,"dose: 300.0 mg/kg/injection, schedule: Q04DX014 (sc), vehicle: Klucel (hydroxypropylcellulose) (HPC)",-30 % of control
same,T/C,"dose: 600.0 mg/kg/injection, schedule: Q01DX014 (sc), vehicle: Klucel (hydroxypropylcellulose) (HPC)",25 % of control
same,T/C,"dose: 600.0 mg/kg/injection, schedule: Q04DX004 (sc), vehicle: other",21 % of control
same,T/C,"dose: 600.0 mg/kg/injection, schedule: Q04DX014 (sc), vehicle: Klucel (hydroxypropylcellulose) (HPC)",-99 % of control
NC(=S)N/N=C/c1ccc(OC(=O)COc2ccccc2)cn1,T/C,[1],102 % of control
same,T/C,[2],94 % of control
same,T/C,[3],155 % of control
same,T/C,[4],38 % of control
C=C[Si]12OCCN(CCO1)CCO2,T/C,"dose: 300.0 mg/kg/injection, schedule: Q04DX004 (sc), vehicle: Klucel (hydroxypropylcellulose) (HPC)",92 % of control
same,T/C,"dose: 600.0 mg/kg/injection, schedule: Q04DX004 (sc), vehicle: Klucel (hydroxypropylcellulose) (HPC)",93 % of control
same,T/C,"dose: 1200.0 mg/kg/injection, schedule: Q04DX004 (sc), vehicle: Klucel (hydroxypropylcellulose) (HPC)",110 % of control
same,T/C,"dose: 2400.0 mg/kg/injection, schedule: Q04DX004 (sc), vehicle: Klucel (hydroxypropylcellulose) (HPC)",71 % of control
O=c1[nH]cc(F)c(=O)[nH]1,T/C,"dose: 6.25 mg/kg/injection, schedule: Q01DX010 (sc), vehicle: saline",160 % of control
same,T/C,"dose: 12.5 mg/kg/injection, schedule: Q01DX010 (sc), vehicle: saline",101 % of control
same,T/C,"dose: 20.0 mg/kg/injection, schedule: Q01DX010 (sc), vehicle: saline",87 % of control and 107 % of control
same,T/C,"dose: 25.0 mg/kg/injection, schedule: Q01DX010 (sc), vehicle: saline",86 % of control
same,T/C,"dose: 40.0 mg/kg/injection, schedule: Q01DX010 (sc), vehicle: saline",46 % of control
same,T/C,"dose: 50.0 mg/kg/injection, schedule: Q04DX004 (ip), vehicle: saline",34 % of control
same,T/C,"dose: 75.0 mg/kg/injection, schedule: Q04DX004 (ip), vehicle: saline",23 % of control
same,T/C,"dose: 80.0 mg/kg/injection, schedule: Q01DX010 (sc), vehicle: saline",59 % of control
CC(=O)NC(C=O)OCC=O (stereo not given),T/C,"dose: 100.0 mg/kg/injection, schedule: Q04DX004 (sc), vehicle: water",106 % of control
same,T/C,"dose: 200.0 mg/kg/injection, schedule: Q04DX004 (sc), vehicle: water",121 % of control
COC1/C=C/C=C(/C)Cc2cc(O)c(Cl)c(c2)N(C)C(=O)CC(OC(=O)C(C)C)C2(C)OC2C(C)C2CC1(O)NC(=O)O2 (stereo not given),T/C,"dose: 0.5 mg/kg/injection, schedule: Q04DX004 (sc), vehicle: saline + alcohol",123 % of control
same,T/C,"dose: 1.0 mg/kg/injection, schedule: Q04DX004 (sc), vehicle: saline + alcohol",78 % of control
same,T/C,"dose: 2.0 mg/kg/injection, schedule: Q04DX004 (sc), vehicle: saline + alcohol",78 % of control
same,T/C,"dose: 4.0 mg/kg/injection, schedule: Q04DX004 (sc), vehicle: saline + alcohol",65 % of control
CC1CN=C(c2ccc(NC(=O)c3ccc(C(=O)Nc4ccc(C5=NCC(C)N5)cc4)cc3)cc2)N1 (stereo not given),T/C,"dose: 25.0 mg/kg/injection, schedule: Q01DX010 (sc), vehicle: Klucel (hydroxypropylcellulose) (HPC)",65 % of control
same,T/C,"dose: 50.0 mg/kg/injection, schedule: Q01DX010 (sc), vehicle: Klucel (hydroxypropylcellulose) (HPC)",34 % of control
same,T/C,"dose: 100.0 mg/kg/injection, schedule: Q01DX010 (sc), vehicle: Klucel (hydroxypropylcellulose) (HPC)",37 % of control
same,T/C,"dose: 200.0 mg/kg/injection, schedule: Q01DX010 (sc), vehicle: Klucel (hydroxypropylcellulose) (HPC)",44 % of control
CCN(CC)CC[n+]1ccc2c(C)c3[nH]c4ccc(O)cc4c3c(C)c2c1,T/C,"dose: 12.5 mg/kg/injection, schedule: Q04DX004 (sc), vehicle: suspension in saline",56 % of control
same,T/C,"dose: 25.0 mg/kg/injection, schedule: Q04DX004 (sc), vehicle: suspension in saline",24 % of control
